Results from EPA's ToxValDB 9.5.

How the values were obtained:
Mus musculus = conditions: for LD50: acute
Oryctolagus sp. = conditions: acute, dermal, New Zealand
Rattus norvegicus [1] = conditions: oral; for LD50: acute
Rattus norvegicus [2] = conditions: M/F
Rattus norvegicus [3] = conditions: subchronic, oral, M/F, Fischer 344
Canidae = conditions: chronic, oral, diet, M/F, Dog Other
Rattus norvegicus [4] = conditions: for NOEL: Hershberger, duration: 10 days, oral, gavage, Sprague-Dawley
Rattus norvegicus [5] = conditions: oral, M/F
[6] = chronic, duration: 2 years, oral, diet, reduced weight gain, organ weight changes, increased mortality
[7] = chronic, inhalation, increased kidney, adrenal and pituitary weight
[8] = developmental, inhalation, Reduced maternal weight gain
[9] = reproduction developmental, oral, kidney, spleen, liver, and bone marrow toxicity
[10] = duration: 1 years, Liver effects + organ weight changes
[11] = duration: 1 years, thyroid toxicity
[12] = duration: 2 years, cholinesterase inhibition
[13] = duration: 1 years, liver cell enlargement
[14] = chronic, duration: 2 years, oral, diet, reduced body weight
[15] = developmental, oral, reduced body weight gain in parental animals and pups
[16] = chronic, duration: 2 years, oral, diet, increased liver weight
[17] = subchronic, duration: 13 weeks, oral, gavage, decreased testis weight and altered spermatogenesis in males. + Increased heart weight in females and males
[18] = reproduction developmental, oral, reduced body weight gain in f1 females

For `c1ccc(-c2ccccc2)cc1` [Biphenyl], the LOAEL (Mus musculus; subchronic, duration: 13 weeks, inhalation, CD1) was 158 mg/m3, the LD50 (Oryctolagus sp.) was over 5010 mg/kg and the LD50 (Rattus norvegicus [1]; Sprague-Dawley) was 2400 mg/kg. The LD50 (Rattus norvegicus [1]; gavage, Sprague-Dawley) was 3280 mg/kg, the NOAEL (Rattus norvegicus [1]; chronic, duration: 750 days, diet) was 78 mg/kg-day and the NOAEL (Rattus norvegicus [1]; developmental, duration: 10 days, gavage, Wistar) was 500 mg/kg-day. The NOAEL (Rattus norvegicus [1]; reproduction developmental, duration: 10 days, gavage, F, Wistar) was 500 mg/kg-day, the NOAEL (Rattus norvegicus [1]; reproduction developmental, duration: 750 days, diet, generation: F0) was 1000 ppm and the NOAEL (Rattus norvegicus [1]; reproduction developmental, duration: 750 days, diet, generation: F1) was 5000 ppm. It also gave an NOAEL (Rattus norvegicus [1]; reproduction developmental, diet, Long-Evans, generation: F0) of 1000 ppm.
`CC1=C(C(=O)Nc2ccccc2)SCCO1` [Carboxin] was tested, and the LEL (Rattus norvegicus [2]; [6]) was 30 mg/kg-day and the NOEL (Rattus norvegicus [2]; [6]) was 10 mg/kg-day.
For `FC(F)Cl` [Chlorodifluoromethane], the LOAEL (Rattus norvegicus [2]; [7]) was 177000 mg/m3, the NOAEL (Rattus norvegicus [2]; [7]) was 35400 mg/m3 and the LOAEL (Rattus norvegicus [2]; [8]) was 177000 mg/m3. The NOAEL (Rattus norvegicus [2]; [8]) was 3540 mg/m3.
`CC(C)OC(=O)Nc1cccc(Cl)c1` [Chlorpropham] was tested, and the NOAEL (Rattus norvegicus [3]; duration: 90 days, diet, Clinical Observation: Pale + Body Weight Changes: decrease + Hematology: RBC decrease, HGB decrease, HCT decrease, MCV increase, MCH …) was under 720 mg/kg-day, the LEL (Rattus norvegicus [2]; [9]) was 150 mg/kg-day and the NOEL (Rattus norvegicus [2]; [9]) was 50 mg/kg-day.
With `Clc1ccccc1-c1nnc(-c2ccccc2Cl)nn1` [Clofentezine] the LEL (Canidae; [10]) was 25 mg/kg-day and the NOEL (Canidae; [10]) was 1.25 mg/kg-day.
Work on `CN(C)NC(=O)CCC(=O)O` [Daminozide] yielded an NOEL (Rattus norvegicus [2]; reproduction developmental, oral, no effects) of 15 mg/kg-day.
`CC(=O)O.CCCCCCCCCCCCN=C(N)N` [Dodecylguanidine acetate] was tested, and the LEL (Canidae; [11]) was 5 mg/kg-day and the NOEL (Canidae; [11]) was 1.25 mg/kg-day.
In the case of `CCOC(C)(C)C` [Ethyl t-butyl ether], the NOAEL (Rattus norvegicus [2]; chronic, duration: 2 years, inhalation, Fischer 344, Increased absolute kidney weight in female rats) was 6270 mg/m3.
Compound `CCOP(=O)(NC(C)C)Oc1ccc(SC)c(C)c1` (centres undefined) [Fenamiphos] has an LEL (Canidae; [12]) of 0.05 mg/kg-day and an NOEL (Canidae; [12]) of 0.025 mg/kg-day.
Work on `C[Si](Cn1cncn1)(c1ccc(F)cc1)c1ccc(F)cc1` [Flusilazole] yielded an LEL (Canidae; [13]) of 0.7 mg/kg-day and an NOEL (Canidae; [13]) of 0.2 mg/kg-day.
In the case of `CC(C)Oc1cccc(NC(=O)c2ccccc2C(F)(F)F)c1` [Flutolanil], the NOEL (Rattus norvegicus [4]; inactive + Negative + neither + negative) was 1000 mg/kg-day and the LEL (Rattus norvegicus [2]; reproduction developmental, oral, Decreased body weight and body weight gains in both doses increased liver weights at high dose) was 63.7 mg/kg-day.
In the case of `COC(=O)c1ccccc1S(=O)(=O)NC(=O)Nc1nc(C)nc(OC)n1` [Metsulfuron-methyl], the LEL (Rattus norvegicus [2]; [14]) was 250 mg/kg-day and the NOEL (Rattus norvegicus [2]; [14]) was 25 mg/kg-day.
Compound `[Mo]` [Molybdenum] has an NOAEL (Rattus norvegicus [5]; subchronic, duration: 90 days, diet, Sprague-Dawley, renal) of 17 mg/kg-day.
Work on `C=CC(=O)NCO` [N-Methylolacrylamide] yielded an LD50 (Mus musculus; oral, DD) of 677 mg/kg, an LD50 (Mus musculus; oral, gavage, B6C3F1) of 400 mg/kg and an NOAEL (Mus musculus; short-term, duration: 16 days, oral, gavage, B6C3F1) of 100 mg/kg-day. It also gave an NOAEL (Mus musculus; subchronic, duration: 90 days, oral, gavage, B6C3F1) of 12.5 mg/kg-day, an LD50 (Rattus norvegicus [1]; gavage, Fischer 344) of 400 mg/kg and an NOAEL (Rattus norvegicus [1]; short-term, duration: 16 days, gavage, Fischer 344) of 50 mg/kg-day. It also gave an NOAEL (Rattus norvegicus [1]; short-term, duration: 28 days, diet) of 4 mg/kg-day, an NOAEL (Rattus norvegicus [1]; subchronic, duration: 90 days, gavage, Fischer 344) of 12.5 mg/kg-day and an NOEL (Rattus norvegicus [3]; duration: 13 weeks, gavage, Deaths + Clinical Observation: Hind limb paresis + Functional Observational Battery: Hind limb-grip strength decrease Auditory startle …) of under 12.5 mg/kg-day.
Work on `CCN(CC)C(=O)C(C)Oc1cccc2ccccc12` (centres undefined) [Napropamide] yielded an LEL (Rattus norvegicus [2]; [15]) of 100 mg/kg-day and an NOEL (Rattus norvegicus [2]; [15]) of 30 mg/kg-day.
With `CCCCCCCCCCCCCCC` [Pentadecane] the LD50 (Mus musculus; injection, intravenous) was 3490 mg/kg.
For `CC1(C)C(C=C(Cl)Cl)C1C(=O)OCc1cccc(Oc2ccccc2)c1` (centres undefined) [Permethrin], the NOAEL (Rattus norvegicus [5]; acute, duration: 1 days, gavage, Long-Evans, neurological) was 25 mg/kg-day, the NOAEL (Rattus norvegicus [5]; subchronic, duration: 13 weeks, diet, Sprague-Dawley, neurological) was 15.5 mg/kg-day and the NOEL (Rattus norvegicus [4]; inactive + Negative + Negative + neither + no effects on PPS, AST, testis/epididymal wt, serum testosterone, and liver wt increased 11% at …) was 120 mg/kg-day. The LEL (Rattus norvegicus [4]; uterotrophic, duration: 3 days, injection, subcutaneous, Active) was 800 mg/kg-day, the LEL (Rattus norvegicus [2]; [16]) was 25 mg/kg-day and the NOEL (Rattus norvegicus [2]; [16]) was 5 mg/kg-day.
`COC(=O)Nc1cccc(OC(=O)Nc2cccc(C)c2)c1` [Phenmedipham] gave an NOAEL (Rattus norvegicus [2]; chronic, duration: 2 years, oral, diet, no effects) of 25 mg/kg-day.
In the case of `CC(C)=CC1C(C(=O)OCc2coc(Cc3ccccc3)c2)C1(C)C` (centres undefined) [Resmethrin], the LEL (Rattus norvegicus [2]; reproduction developmental, oral, reproductive toxicity) was 25 mg/kg-day.
Compound `O=C([O-])CF.[Na+]` [Sodium fluoroacetate] has an LOAEL (Rattus norvegicus [2]; [17]) of 0.2 mg/kg-day and an NOAEL (Rattus norvegicus [2]; [17]) of 0.05 mg/kg-day.
Compound `CNC(=O)N(C)c1nnc(C(C)(C)C)s1` [Tebuthiuron] has an LEL (Rattus norvegicus [2]; [18]) of 14 mg/kg-day and an NOEL (Rattus norvegicus [2]; [18]) of 7 mg/kg-day.
For `C[CH2][Pb]([CH2]C)([CH2]C)[CH2]C` [Tetraethyl lead], the LOAEL (Rattus norvegicus [2]; subchronic, oral, histopathology: liver and thymus) was 0.0017 mg/kg-day.
`[S-]c1nc2ccccc2s1.[S-]c1nc2ccccc2s1.[Zn+2]` [Zinc 2-mercaptobenzothiazolate] showed an NOAEL (Mus musculus; reproduction developmental, duration: 18 months, oral) of 1000 mg/kg-day, an LD50 (Oryctolagus sp.) of over 2000 mg/kg and an LD50 (Oryctolagus sp.; occlusive) of over 7940 mg/kg. The LD50 (Rattus norvegicus [1]; Sprague-Dawley) was 5500 mg/kg and the LD50 (Rattus norvegicus [1]; gavage, Sprague-Dawley) was 7500 mg/kg.
